Results: patent publication US4626271A, “Cyanobacterin herbicide” (priority 1985, dated 1986)
Where “and” joins values, the source holds several entries; their conditions need not be identical. Equal entries are not always repeated.

Key:
[1] = tested on: cyanobacterial spheroplast system; experiment: Activity in a cyanobacterial spheroplast system; type: cell-based
Description: (§1) Synthetic cyanobacterin such as the racemic mixture prepared by Jong T. T. et al in J. Org.

[2] = tested on: whole cell growth; experiment: Whole cell growth measurements, long term studies; type: cell-based
Description: as §1

[3] = tested on: cell growth; experiment: Biological activity / cell growth of the anhydro analog; type: cell-based
Description: The cyanobacterin used in this invention may be obtained from Scytonema hofmanni (UTEX 2349 University of Texas Collection, Austin, Tex.) cells. Cyanobacterin is a diaryl substituted gamma-ylidene, gamma-butyro lactone with a chlorine substituent on one of the aromatic rings. […] This compound results from dehydration of the parent compound: [drawing 1]
It has been postulated by the inventor that a hydrophilic constituent on the lactone ring is crucial to the activity of cyanobacterin and may be involved in protein binding.

[4] = Application to the soil; type: in vivo
Description: (§2) Cyanobacterin, when applied to the soil had no effect. […] Also, it may not be transported through the root vascular system. The Hill reaction is inhibited by cyanobacterin as shown by the use of photosynthetically active pea chloroplasts.

[5] = tested on: Pisum sativum, var. Little Marvel; experiment: Spray treatment of pea; type: in vivo
Experimental: (§3) 10 mg of cyanobacterin dissolved in lml. of ethyl ether was mixed with 0.1 ml of the Science "Sticker" of Science Products, Co., which contains about 77% Triton B-1956 brand surfactant. 10 ml of water was added and mixed. After mixing for about 30 minutes to allow the ether to evaporate, the composition was ready to apply to plants.
(§4) A variety of green plants were treated with a cyanobacterin solution prepared in accordance with Example I above. An atomizer was used to spray the plants with a fine spray. Before placing the fluid into an atomizer, the solution was measured and then remeasured after application on the plants.
(§5) A control solution of 0.1 ml of sticker-ether in 10 ml of distilled water was applied to the control plants. These plants were treated in the same manner as in the cyanobacterin application and measured in the same way. Plants were cut off at the soil line and dried for 16 hours at 110° C.
Pisum sativum, var. Little Marvel, plants were tested at a rate of 1 and 2 plants per pot. With one plant per pot, a total of nine control plants were used and 12 cyanobacterin treated plants were utilized. With 2 plants per pot, one control plant was utilized and 2 cyanobacterin treated plants were utilized. The plants were treated 8 and 6 days after germination respectively, with the cyanobacterin compound of Example I. The pots containing 1 plant per pot were treated with 1.5 milligrams and the pots containing 2 plants were treated with 0.6 milligrams of the cyanobacterin compound. The control plant dry weight of a single plant per pot plants after the fifteen days of growth was 363.8 milligrams and 194.9 milligrams for the cyanobacterin treated plant dry weight.

[6] = tested on: Polygonium convolvulus; experiment: Spray treatment of wild buckwheat; type: in vivo; conditions: for treated plant dry weight: fifteenth day
Experimental: as §3, §4, §5
Polygonium convolvulus plants were raised at a rate of over 10 plants per pot. Five control pots were used and 5 pots were treated with the cyanobacterin containing compound of the invention.
The first plants treated were treated 2 days after germination with 0.29 milligrams of the cyanobacterin. The control plant dry weight at the fifteenth day was 92.4 milligrams and the cyanobacterin treated dry weight was 59.1 milligrams. The second group of plants were treated 4 days after germination with 0.5 milligrams of cyanobacterin.

[7] = Hydrophobicity; type: physicochemical
[8] = tested on: photosystem II; experiment: Hill reaction / oxygen evolution in pea chloroplasts; type: biochemical
Description: It is theorized that cyanobacterin acts on green plants by specifically binding to some component of the photosynthetic electron transport system.
as §2

[9] = tested on: Lemna gibba, L.minor and Lemna 6746 (Duckweed); experiment: Use against aquatic plants (frond multiplication, toxicity); type: in vivo
Experimental: The effect of cyanobacterin was initially tested on the aquatic angiosperms, Lemna gibba, L.minor and Lemna 6746 (Duckweed). Cyanobacterin stopped frond multiplication at a minimum dose of 0.5 μg per ml of growth medium (1.1 μM). The plants recovered after about 7-12 days. Presumably, this is due to degradation of the cyanobacterin over time which drops the dosage below the minimum. At a concentration of 1.0 μg/ml (2.3 μM), cyanobacterin is toxic to Lemna. The plants generally appear normal for 10-15 days after which the roots fall off and the leaves become chlorotic.

[10] = Herbicidal effect, amount relative to plant dry weight; type: in vivo; conditions: by dry weight
Description: The composition may be formulated from high purity cyanobacterin or from crude extracts obtained from the blue-green algae since high purity is not required. […] Additionally, the composition may be formulated from a synthetic cyanobacterin, such as the racemic mixture described by T. T. Jong et al, "Total synthesis and X-ray structure determination of cyanobacterin", J. Org. Chem. 49:735-736(1984).

[11] = tested on: Zea Mays of the hybrid variety Goldencross Bantam; experiment: Spray treatment of sweet corn; type: in vivo; conditions: 1.0 milligrams, Example I composition
Experimental: as §3, §4, §5
Zea Mays of the hybrid variety Goldencross Bantam was tested with one plant per pot. A total of nine control plants were used and 14 plants were treated with the cyanobacterin composition of Example I. The plants were treated once, 8 days after germination. After growing for a total of 15 days after treatment, the plants were cut off at the soil line and the dry weight was determined. A control plant dry weight was 227.4 milligrams and the cyanobacterin treated plant dry weight was 59.4 milligrams. The amount of cyanobacterin utilized was 1.0 milligrams.

[12] = tested on: Setaria viridis; experiment: Spray treatment of green foxtail; type: in vivo; conditions: for treated plant dry weight: fifteenth day
Experimental: as §3, §4, §5
Setaria viridis plants were grown at a rate of over 10 per pot. A total of 5 control pots were used and 5 cyanobacterin treated pots were utilized. Two concentrations of cyanobacterin were utilized. In the first group 0.5 milligrams of cyanobacterin was applied to plants 8 days after germination. The control plant dry weight on the fifteenth day after cutting was 365.8 milligrams and the cyanobacterin treated plant dry weight was 176.3 milligrams. A second group of plants was treated with 2.8 milligrams of cyanobacterin 7 days after germination.

[13] = tested on: Avena fatua; experiment: Spray treatment of wild oats; type: in vivo
Experimental: as §3, §4, §5
Avena fatua plants were grown at a rate of over 10 plants per pot. A total of 5 control pots were used and 5 cyanobacterin treated pots were utilized.
Three separate concentrations of cyanobacterin were utilized. In group 1 the plants were treated 3 days after germination with 0.44 milligrams of the cyanobacterin. […] A second group were treated with 0.6 milligrams of cyanobacterin two weeks after germination. […] The third group of plants were treated with 1.05 milligrams of cyanobacterin 7 days after germination.

[14] = tested on: Rumex crispus; experiment: Spray treatment of curled dock; type: in vivo; conditions: for treated plant dry weight: fifteenth day
Experimental: as §3, §4, §5
Rumex crispus was grown at a rate of 10 plants or more per pot. A total of 5 control pots were used and 5 pots were treated with the cyanobacterin containing compound of Example I. Seven days after germination the plants were treated with 1.45 milligrams of cyanobacterin. […] By the 9th day, half the plants were dead and half were chlorotic. […] The control plant dry weight at the fifteenth day was 453.3 milligrams and the cyanobacterin dry weight was 93.1 milligrams.
Curled dock plants were also treated with 0.5 milligrams of cyanobacterin. The plants were treated with the cyanobacterin compound 8 days after germination. On the 7th day after treatment, many of the plants were dead and others were chlorotic.

COc1ccc(/C=C2\OC(=O)C(Cc3cc(Cl)c4c(c3)OCO4)C2(O)C(C)C)cc1 (racemic) [Synthetic cyanobacterin]
activity relative to cyanobacterin [1]: about half the activity of cyanobacterin | activity relative to cyanobacterin [2]: the same activity

COc1ccc(/C=C2\OC(=O)C(Cc3cc(Cl)c4c(c3)OCO4)=C2C(C)C)cc1 [anhydrocyanobacterin]
biological activity [3]: no biological activity | effect on cell growth [3]: no effect on cell growth

COc1ccc(/C=C2\OC(=O)C(Cc3cc(Cl)c4c(c3)OCO4)C2(O)C(C)C)cc1 (stereo not drawn) [cyanobacterin]
effect when applied to the soil [4]: no effect | plant condition on the 15th day ([5]; 0.6 to 1.5 milligrams per plant): all of the cyanobacterin treated plants were dead | treated plant dry weight ([5]; 1 plant per pot, 1.5 milligrams, treated 8 days after germination, fifteen days of growth, control 363.8 milligrams): 194.9 milligrams | treated plant dry weight ([5]; 2 plants per pot, 0.6 milligrams, treated 6 days after germination, control 169.8 milligrams): 101.4 milligrams | treated plant dry weight ([6]; 0.29 milligrams, 2 days after germination, control 92.4 milligrams): 59.1 milligrams | treated plant dry weight ([6]; 0.5 milligrams, 4 days after germination, control 157.8 milligrams): 59.1 milligrams | plant condition by the 15th day ([6]; either concentration (0.29 or 0.5 milligrams)): Only a few of the cyanobacterin treated plants were dead | hydrophobicity [7]: very hydrophobic | electron flow from water to electron acceptors [8]: inhibits electron flow | Hill reaction ([8]; photosynthetically active pea chloroplasts): inhibited | concentration that completely inhibits oxygen evolution ([8]; photosynthetically active pea chloroplasts, in the presence of DCPIP): 110 nM | plant condition by 30 days ([9]; 1.0 μg/ml or greater, purified cyanobacterin): most plants treated with 1.0 μg/ml or greater concentrations of purified cyanobacterin were dead | time until plants recovered ([9]; at minimum dose 0.5 μg per ml): 7 to 12 days | minimal effective concentration ([9]; in growth medium, read-out: minimum dose that stopped frond multiplication): 0.5 µg/mL and 1.1 µM | amount effective as a herbicide relative to plant dry weight [10]: one part of the cyanobacterin to 450 parts of the plant | plant condition by the fifteenth day [11]: dead | plant condition on the ninth day after treatment [11]: no new growth | treated plant dry weight ([11]; treated once 8 days after germination, 15 days after treatment, control 227.4 milligrams): 59.4 milligrams | treated plant dry weight ([12]; 0.5 milligrams, 8 days after germination, control 365.8 milligrams): 176.3 milligrams | plant condition at approximately the 9th day after treatment ([12]; 0.5 or 2.8 milligrams): approximately half of the plants had died | treated plant dry weight ([12]; 2.8 milligrams, 7 days after germination, control 411.7 milligrams): 217.7 milligrams | treated plant dry weight ([13]; 0.44 milligrams, 3 days after germination, fifteen days after treatment, control 154.6 milligrams): 115.5 milligrams | plant condition at the end of the experiment ([13]; 0.44 to 1.05 milligrams): stressed but overall were still green and growing | treated plant dry weight ([13]; 0.6 milligrams, two weeks after germination, fifteen days after treatment, control 328.5 milligrams): 79.5 milligrams | treated plant dry weight ([13]; 1.05 milligrams, 7 days after germination, fifteenth day, control 489.6 milligrams): 155.8 milligrams | plant condition by the 15th day ([14]; 0.5 milligrams): half of the plants were dead, one-quarter were chlorotic and one-quarter were large, green and healthy like the control | treated plant dry weight ([14]; 0.5 milligrams, 8 days after germination, control 451.9 milligrams): 239.1 milligrams | plant condition by the 15th day ([14]; 1.45 milligrams): all were dead except for a few | treated plant dry weight ([14]; 1.45 milligrams, seven days after germination, control 453.3 milligrams): 93.1 milligrams
